Experimental data taken from patent US9586956B2, “Isoquinoline and naphthyridine derivatives” (Genentech, Inc., priority 2012, dated 2017).

What was measured:
[1] = molecular target: T1, purified human MAP4K4 kinase domain (Homo sapiens, UniProt O95819); test: MAP4K4 Inhibition Assay Protocol No. 2 (Z'-LYTE FRET); format: biochemical; details: Assay 2; 1 nM enzyme, 10 uM ATP, 60 min
T1 construct: purified human MAP4K4 kinase domain
Excerpt: The kinase activity of purified human MAP4K4 kinase domain was monitored using Z'-LYTE™ technology from Invitrogen to determine inhibition constants (IC50) of small molecule inhibitors. The Z'-LYTE™ biochemical assay employs a fluorescence-based, coupled-enzyme format and is based on the differential sensitivity of phosphorylated and non-phosphorylated peptides to proteolytic cleavage. In the primary reaction, the kinase transfers the gamma-phosphate of ATP to a single tyrosine, serine or threonine residue in a synthetic FRET-peptide. In the secondary reaction, a site-specific protease recognizes and cleaves non-phosphorylated FRET-peptides. Phosphorylation of FRET-peptides suppresses cleavage by the Development Reagent. Cleavage disrupts FRET between the donor (i.e., coumarin) and acceptor (i.e., fluorescein) fluorophores on the FRET-peptide, whereas uncleaved, phosphorylated FRET-peptides maintain FRET. To determine inhibition constants (IC50), compounds were serially diluted in DMSO and added to 10 uL kinase reactions containing 1 nM purified MAP4K4 enzyme, 2 uM ser/thr7 Z'-LYTE™ substrate, 10 uMATP, 50 mM Hepes (pH 7.5), 10 mM MgCl2, 1 mM EGTA, 0.01% Brij-35, and 2% DMSO. Reactions were incubated at room temperature in Corning Black 384 well plates (Corning#3573) for 60 minutes and stopped by the addition of 5 uL of Z'-LYTE™ development reagent A and incubated at room temp for 60 minutes. The plate is then analyzed on Perkin Elmer Envision by FRET mode. The high ratio of coumarin/fluorescein represents 0% phosphorylation rate while low ratio of coumarin/fluorescein represents 100% phosphorylation rate. The following equations are used to determine extent of peptide phosphorylation or inhibition: […]

[2] = molecular target: T1, purified human MAP4K4 kinase domain; test: MAP4K4 Inhibition Assay Protocol No. 1 (Caliper LabChip, moesin-derived peptide phosphorylation); format: biochemical; details: Assay 1; 1 nM enzyme, 10 uM ATP, 45 min
Protocol: The kinase activity of purified human MAP4K4 kinase domain was measured by monitoring the phosphorylation of a peptide substrate derived from moesin protein (Leu-Gly-Arg-Asp-Lys-Tyr-Lys-Thr-Leu-Arg-Gln-Ile-Arg-Gln) fluorescently labeled on the N-terminus with 5-carboxyfluorescein using the Caliper LabChip technology (Caliper Life Sciences, Hopkinton, Mass.). To determine inhibition constants (IC50), compounds were serially diluted in DMSO and added to 10 uL kinase reactions containing 1 nM purified MAP4K4 enzyme, 1 uM peptide substrate, 10 uM ATP, 10 mM MgCl2, 1 mM EGTA, 50 mM Hepes pH 7.2, 1 mM DTT, 0.01% Triton X-100, and 2% DMSO. Reactions were incubated at room temperature in Perkin Elmer Proxiplates for 45 minutes and stopped by the addition of 10 uL of an EDTA-containing solution (50 mM Hepes pH 7.2, 40 mM EDTA, 0.02% Triton X-100). The fraction of phosphorylated peptide was determined as a fraction of total peptide substrate using the Caliper Lab Chip 3000 according to the manufacturer's instructions. IC50 values were determined using the four-parameter non-linear fit model.

T1 sequence (O95819 25-289 limits assumed): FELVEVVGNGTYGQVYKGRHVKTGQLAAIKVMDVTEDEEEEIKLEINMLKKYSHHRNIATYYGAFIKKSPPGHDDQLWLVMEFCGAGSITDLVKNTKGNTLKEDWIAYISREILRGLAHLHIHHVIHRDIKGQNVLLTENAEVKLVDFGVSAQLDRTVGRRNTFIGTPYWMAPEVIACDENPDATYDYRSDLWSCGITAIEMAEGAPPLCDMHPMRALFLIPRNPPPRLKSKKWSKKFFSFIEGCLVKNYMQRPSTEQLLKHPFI

| Structure (SMILES) | IC50 [1] | IC50 [2] |
| --- | --- | --- |
| Cn1cnc(-c2cnc(N)c3cc(-c4cccc(F)c4)ccc23)c1 [Example 10, 7-(3-fluorophenyl)-4-(1-methylimidazol-4-yl)isoquinolin-1-amine] | 0.0287 µM |  |
| Nc1ncc(-c2ncco2)c2ccc(-c3cccc(F)c3)cc12 [Example 11, 7-(3-fluorophenyl)-4-oxazol-2-yl-isoquinolin-1-amine] | 0.00873 µM |  |
| Cn1ncnc1-c1cnc(N)c2cc(-c3cccc(F)c3)ccc12 [Example 12, 7-(3-fluorophenyl)-4-(2-methyl-1,2,4-triazol-3-yl)isoquinolin-1-amine] | 0.218 µM |  |
| Nc1ncc(C(=O)NC2CN(C(=O)C3COC3)C2)c2ccc(-c3cccc(F)c3)nc12 [Example 17, 8-amino-2-(3-fluorophenyl)-N-(1-(oxetane-3-carbonyl)azetidin-3-yl)-1,7-naphthyridine-5-carboxamide] | 0.0195 µM |  |
| CS(=O)(=O)N1CC(NC(=O)c2cnc(N)c3nc(-c4cccc(F)c4)ccc23)C1 [Example 18, 8-amino-2-(3-fluorophenyl)-N-(1-(methylsulfonyl)azetidin-3-yl)-1,7-naphthyridine-5-carboxamide] | 0.0116 µM |  |
| Nc1ncc(C(=O)NC2CN(CC(F)(F)F)C2)c2ccc(-c3cccc(F)c3)nc12 [Example 22, 8-amino-2-(3-fluorophenyl)-N-(1-(2,2,2-trifluoroethyl)azetidin-3-yl)-1,7-naphthyridine-5-carboxamide] | 0.0244 µM |  |
| Nc1ncc(C(=O)NC2CN(S(=O)(=O)C(F)(F)F)C2)c2ccc(-c3cccc(F)c3)nc12 [Example 23, 8-amino-2-(3-fluorophenyl)-N-(1-((trifluoromethyl)sulfonyl)azetidin-3-yl)-1,7-naphthyridine-5-Carboxamide] | 0.0285 µM |  |
| C[C@H](O)C(=O)N1CC(NC(=O)c2cnc(N)c3nc(-c4cccc(F)c4)ccc23)C1 [Example 25, (S)-8-amino-2-(3-fluorophenyl)-N-(1-(2-hydroxypropanoyl)azetidin-3-yl)-1,7-naphthyridine-5-carboxamide] | 0.00918 µM |  |
| Nc1ncc(C(=O)NC2CN(C(=O)N3CCOCC3)C2)c2ccc(-c3cccc(F)c3)nc12 [Example 27, 8-amino-2-(3-fluorophenyl)-N-(1-(morpholine-4-carbonyl)azetidin-3-yl)-1,7-naphthyridine-5-carboxamide] | 0.0147 µM |  |
| CCC(=O)NC1CN(C(=O)c2cnc(N)c3nc(-c4cccc(F)c4)ccc23)C1 [Example 29, N-(1-(8-amino-2-(3-fluorophenyl)-1,7-naphthyridine-5-carbonyl)azetidin-3-yl)propionamide] | 0.0608 µM |  |
| Nc1ncc(C(=O)N2CC(NC(=O)C3CC3)C2)c2ccc(-c3cccc(F)c3)nc12 [Example 30, N-(1-(8-amino-2-(3-fluorophenyl)-1,7-naphthyridine-5-carbonyl)azetidin-3-yl)cyclopropanecarboxamide] | 0.0139 µM |  |
| Nc1ncc(C(=O)N2CC(N(C(=O)C3CC3)C(=O)C3CC3)C2)c2ccc(-c3cccc(F)c3)nc12 [Example 31, N-(1-(8-amino-2-(3-fluorophenyl)-1,7-naphthyridine-5-carbonyl)azetidin-3-yl)-N-(cyclopropanecarbonyl)cyclopropanecarboxamide] | 0.284 µM |  |
| CC(=O)NC1CN(C(=O)c2cnc(N)c3nc(-c4cccc(F)c4)ccc23)C1 [Example 32, N-(1-(8-amino-2-(3-fluorophenyl)-1,7-naphthyridine-5-carbonyl)azetidin-3-yl)acetamide] | 0.0198 µM |  |
| CCC(=O)N1CC(NC(=O)c2cnc(N)c3cc(-c4cccc(F)c4)ccc23)C1 [Example 125, 1-amino-7-(3-fluorophenyl)-N-(1-propanoylazetidin-3-yl)isoquinoline-4-carboxamide] |  | 0.0503 µM |
| Nc1ncc(C(=O)NC2CN(C(=O)C3CC3)C2)c2ccc(-c3cccc(F)c3)cc12 [Example 126, 1-amino-N-[1-(cyclo-propanecarbonyl)azetidin-3-yl]-7-(3-fluorophenyl)isoquinoline-4-carboxamide] |  | 0.0357 µM |

Next, values leading:

| IC50 [1] | IC50 [2] | Structure (SMILES) |
| --- | --- | --- |
| 0.00455 µM |  | Nc1ncc(C(=O)NC2CN(C(=O)N3CCS(=O)(=O)CC3)C2)c2ccc(-c3cccc(F)c3)nc12 [Example 15, 8-amino-N-(1-(1,1-dioxidothiomorpholine-4-carbonyl)azetidin-3-yl)-2-(3-fluorophenyl)-1,7-naphthyridine-5-carboxamide] |
| 0.0045 µM |  | CC(O)C(=O)N1CC(NC(=O)c2cnc(N)c3nc(-c4cccc(F)c4)ccc23)C1 (stereo not shown) [Example 16, 8-amino-2-(3-fluorophenyl)-N-(1-(2-hydroxypropanoyl)azetidin-3-yl)-1,7-naphthyridine-5-carboxamide] |
| 0.00385 µM |  | CN(C)S(=O)(=O)N1CC(NC(=O)c2cnc(N)c3nc(-c4cccc(F)c4)ccc23)C1 [Example 19, 8-amino-N-(1-(N,N-dimethylsulfamoyl)azetidin-3-yl)-2-(3-fluorophenyl)-1,7-naphthyridine-5-carboxamide] |
| 0.0068 µM |  | Nc1ncc(C(=O)NC2CN(C(=O)CN3CCOCC3)C2)c2ccc(-c3cccc(F)c3)nc12 [Example 20, 8-amino-2-(3-fluorophenyl)-N-(1-(2-morpholinoacetyl)azetidin-3-yl)-1,7-naphthyridine-5-carboxamide] |
| 0.0018 µM |  | Nc1ncc(C(=O)NC2CN(S(N)(=O)=O)C2)c2ccc(-c3cccc(F)c3)nc12 [Example 21, 8-amino-2-(3-fluorophenyl)-N-(1-sulfamoylazetidin-3-yl)-1,7-naphthyridine-5-carboxamide] |
| 0.004 µM |  | C[C@@H](O)C(=O)N1CC(NC(=O)c2cnc(N)c3nc(-c4cccc(F)c4)ccc23)C1 [Example 24, (R)-8-amino-2-(3-fluorophenyl)-N-(1-(2-hydroxypropanoyl)azetidin-3-yl)-1,7-naphthyridine-5-carboxamide] |
| 0.00411 µM |  | CC(=O)N1CC(NC(=O)c2cnc(N)c3nc(-c4cccc(F)c4)ccc23)C1 [Example 26, N-(1-acetylazetidin-3-yl)-8-amino-2-(3-fluorophenyl)-1,7-naphthyridine-5-carboxamide] |
| 0.002 µM |  | Nc1ncc(-c2nnco2)c2ccc(-c3cccc(F)c3)nc12 [Example 28, 2-(3-fluorophenyl)-5-(1,3,4-oxadiazol-2-yl)-1,7-naphthyridin-8-amine] |
| 0.00165 µM |  | Nc1ncc(C(=O)NC2CCC2)c2ccc(-c3cccc(F)c3)nc12 [Example 33, 8-amino-N-cyclobutyl-2-(3-fluorophenyl)-1,7-naphthyridine-5-carboxamide] |
| 0.0016 µM |  | CNC(=O)N1CC(NC(=O)c2cnc(N)c3nc(-c4cccc(F)c4)ccc23)C1 [Example 34, 8-amino-2-(3-fluorophenyl)-N-(1-(methylcarbamoyl)azetidin-3-yl)-1,7-naphthyridine-5-carboxamide] |
| 0.00378 µM |  | CCC(=O)N1CC(NC(=O)c2cnc(N)c3nc(-c4cccc(F)c4)ccc23)C1 [Example 35, 8-amino-2-(3-fluorophenyl)-N-(1-propionylazetidin-3-yl)-1,7-naphthyridine-5-carboxamide] |
| 0.00294 µM |  | Nc1ncc(C(=O)NC2CN(C(=O)C3CC3)C2)c2ccc(-c3cccc(F)c3)nc12 [Example 37, 8-amino-N-(1-(cyclopropanecarbonyl)azetidin-3-yl)-2-(3-fluorophenyl)-1,7-naphthyridine-5-carboxamide] |
| 0.00569 µM |  | Nc1ncc(C(=O)NC2COC2)c2ccc(-c3cccc(F)c3)nc12 [Example 38, 8-amino-2-(3-fluorophenyl)-N-(oxetan-3-yl)-1,7-naphthyridine-5-carboxamide] |
